Data reported in patent publication US4137420A, “Cysteine derivatives” (Santen Pharmaceutical Co., Ltd., priority 1976, dated 1979).

Key:
mucin = test: In vitro determination of the reduction in viscosity of mucin; settings: 10 mM; 1% mucin, pH 8.0, 1 hour at 37° C; mean ± S.E. of 3 to 5 experiments
Procedure: Mucolytic activity is evaluated by determining the reduction in viscosity of egg white or mucin in vitro. L-Cysteine ethyl ester hydrochloride, L-cysteine methyl ester hydrochloride and acetyl-L-cysteine are used as test compounds for comparison.
(2) In vitro determination of the reduction in viscosity of mucin
According to the method presented by Sheffner et al. (Ann, N.Y. Acad. Sci., Vol. 106, P 298-310, 1963), bacteriological mucin (Nakarai Chemical Co., Ltd.) is dissolved in Sorensen's phosphate buffer (pH =8.0) and a 1% mucin solution is prepared. 0.9ml portions of the solution are put into test tubes and test compounds (prepared in the same manner as in (1) previously described, except that the buffer solution is used for control) are added to them in a concentration 10mM. The mixture is then shaken for 1 hour at 37° C. The viscosity of the resulting solution is determined by Ostwald viscosimeter. Results shown in Table 1 are percent reduction in relative viscosity at 10mM of the test compounds used.

in vivo = settings: mouse, ip
Procedure: 5-week-old male mice of ddy strain (body weight 24-28g) are used. […] Test solution
Test compound is added to physiological saline and the resulting solution is neutralized with sodium hydroxide to form a 5% solution (pH 7.0).
After administration of test solution, general symptoms and deaths which are caused during seven days are observed. The LD50 values are calculated according to the method of Litchfield and Wilcoxon.

[1] = Changes in the mucolytic activity of the test compounds treated with rabbit serum (viscosity of egg white); settings: for Reduction in the mucolytic activity (%): 1.0 mM, rabbit serum treated vs untreated; for Percent reduction in relative viscosity of egg white, treated with rabbit serum / Percent reduction in relative viscosity of egg white, untreated with rabbit serum: final concentration 1.0 mM, mean ± S.E. of 3 to 5 experiments; for Percent reduction in relative viscosity of egg white, treated with rabbit serum: after 30 minutes at 37° C with rabbit serum; for Percent reduction in relative viscosity of egg white, untreated with rabbit serum: without rabbit serum
Procedure: (3) Changes in the mucolytic activity of the test compounds treated with rabbit serum.
0.1ml of test compound (prepared in the same manner as (1) previously described) and 0.9ml of rabbit serum are put into a 50-ml beaker and the resulting mixture is shaken for 30 minutes at 37° C. 9ml of egg white is then added it and it is shaken for another 20 minutes. The viscosity of the resulting solution is determined by an Ostwald viscosimeter. Results shown in Table 2 are percent reduction in the relative viscosity of egg white at 1mM of the test compounds after treatment with or without rabbit serum.

[2] = In vitro determination of the reduction in viscosity of egg white; settings: 20 minutes at 37° C, mean ± S.E. of 3 to 5 experiments
Procedure: Mucolytic activity is evaluated by determining the reduction in viscosity of egg white or mucin in vitro. L-Cysteine ethyl ester hydrochloride, L-cysteine methyl ester hydrochloride and acetyl-L-cysteine are used as test compounds for comparison. (1) In vitro determination of the reduction in viscosity of egg white Egg white, which is pooled in sufficient quantity to supply material for all the determinations, is gently blended in a mixer for 5 minutes. 9ml portions of this material are put into a 50-ml beaker and the test solution in a volume of 1ml containing various concentrations of test compound (test compound is dissolved in distilled water and the solution is adjusted to pH 8.0 with 1 N sodium hydroxide, while distilled water is used as a control) is added. The mixture is then shaken for 20 minutes at 37° C. Viscosity of the resulting solution is determined by an Ostwald viscosimeter. Results shown in Table 1 are percent reduction in relative viscosity at various concentrations of the test compound used.

Row | SMILES | Percent reduction in relative viscosity, mucin (mucin) | LD50 at 168 h (in vivo) | Reduction in the mucolytic activity (%) [1] | Percent reduction in relative viscosity of egg white, treated with rabbit serum [1] | Percent reduction in relative viscosity of egg white, untreated with rabbit serum [1] | Percent reduction in relative viscosity, egg white ([2]; final concentration 0.1 mM) | Percent reduction in relative viscosity, egg white ([2]; final concentration 10.0 mM)
1 | CC(S)C(=O)N[C@@H](CS)C(=O)O (single isomer, unassigned) [N-(2-mercaptopropionyl)-L-cysteine-A] | 26.6 ± 1.5% | 2090 mg/kg | 27.2% | 30.0 ± 1.0% | 41.2 ± 2.1% | 24.9 ± 1.5% | 56.4 ± 1.6%
2 | CC(S)C(=O)N[C@@H](CS)C(=O)O (single isomer, unassigned) [N-(2-mercaptopropionyl)-L-cysteine-B] | 20.1 ± 0.4% |  | 18.8% | 31.1 ± 3.8% | 38.1 ± 2.6% | 24.9 ± 1.4% | 57.7 ± 1.0%
3 | CCOC(=O)[C@@H](N)CS.Cl [L-cysteine ethyl ester hydrochloride, L-Cysteine ethyl ester hydrochloride, reference compound] | 19.7 ± 1.5% |  | 63.3% | 15.4 ± 1.8% | 42.0 ± 1.1% | 25.1 ± 3.5% | 59.9 ± 1.2%
4 | COC(=O)[C@@H](N)CS.Cl [L-cysteine methyl ester hydrochloride, reference compound] | 17.8 ± 0.2% |  | 84.6% | 7.0 ± 1.2% | 45.5 ± 2.0% | 31.1 ± 5.6% | 60.6 ± 2.4%
5 | CC(C)(S)C(=O)N[C@@H](CS)C(=O)O [N-(2-mercaptoisobutyryl)-L-cysteine] | 22.5 ± 1.5% |  | 14.1% | 32.9 ± 1.0% | 38.3 ± 2.2% | 23.1 ± 1.4% | 57.0 ± 1.0%
6 | O=C(CCS)N[C@@H](CS)C(=O)O [N-(3-mercaptopropionyl)-L-cysteine] | 28.1 ± 0.5% |  | -5.4% | 38.7 ± 2.6% | 36.7 ± 1.6% | 22.8 ± 0.1% | 54.5 ± 4.7%
7 | CC(=O)N[C@@H](CS)C(=O)O [N-acetyl-L-cysteine, acetyl-L-cysteine, reference compound] | 4.8 ± 2.5% |  | 37.3% | 18.5 ± 0.8% | 29.5 ± 2.5% | 11.0 ± 2.6% | 49.0 ± 1.8%
8 | O=C(CS)N[C@@H](CS)C(=O)O [N-mercaptoacetyl-L-cysteine] | 31.8 ± 1.5% |  | 9.8% | 35.9 ± 0.3% | 39.8 ± 3.0% | 26.1 ± 4.1% | 60.0 ± 4.4%
